According to patent US10231453B2, “5-substituted imidazole derivatives” (BAYER CROPSCIENCE AKTIENGESELLSCHAFT, priority 2015, dated 2019):
Read-outs that look alike come from different tables or passages of the source.

Key:
[1] = test system: Botrytis cinerea; test: In vivo preventive test on Botrytis cinerea (grey mould) on gherkin, Examples B, Q1 and R2; conditions: for pest or weed control at 500 ppm / pest or weed control at 100 ppm: Botrytis cinerea
[2] = Measurement of LogP values by HPLC on reversed phase columns (EEC directive 79/831 Annex V.A8); assay type: physicochemical; conditions: method [a]: LC-UV, acidic range, 0.1% formic acid in water and acetonitrile as eluent; Table 1
Method: Measurement of Log P values was performed as outlined above.

[3] = test system: Pyrenophora teres; test: In vivo preventive test on Pyrenophora teres (net blotch on barley), Examples D, Q2 and R4; conditions: Pyrenophora teres, 336 h, 500 ppm of active ingredient, preventive spray, evaluated 14 days after inoculation, read-out: efficacy
[4] = test system: Sphaerotheca fuliginea; test: In vivo preventive test on Sphaerotheca fuliginea (powdery mildew on cucurbits), Examples F and R6; conditions: Podosphaera fuliginea, 360 h; 500 ppm of active ingredient; gherkin, preventive spray, evaluated 15 days after inoculation; read-out: efficacy
[5] = test system: Puccinia recondita; test: In vivo preventive test on Puccinia recondita (brown rust on wheat), Examples C and R3; conditions: Puccinia recondita, 264 h; 500 ppm of active ingredient; wheat, preventive spray, evaluated 11 days after inoculation; read-out: efficacy
[6] = test system: Uromyces appendiculatus; test: In vivo preventive test on Uromyces appendiculatus (bean rust), Examples G and R7; conditions: 264 h, 500 ppm of active ingredient, bean, preventive spray, evaluated 11 days after inoculation, read-out: efficacy
[7] = test system: Septoria tritici; test: In vivo preventive test on Septoria tritici (leaf spot on wheat), Examples E, Q3 and R5; conditions: Zymoseptoria tritici, 576 h, 500 ppm of active ingredient; wheat, preventive spray, evaluated 24 days after inoculation; read-out: efficacy
[8] = Example R2, rate of application 100 ppm
[9] = Example R2, rate of application 500 ppm
[10] = 500 ppm of active ingredient, preventive spray, evaluated 4 to 5 days after inoculation, read-out: efficacy
[11] = Example R2, rate of application 100 ppm, read-out: Efficacy in %
[12] = Example R2, rate of application 500 ppm, read-out: Efficacy in %

SMILES	Efficacy in % [1, 8]	Efficacy in % [1, 9]	chromatographic logP [2]	pest or weed control at 500 ppm [3]	pest or weed control at 500 ppm [4]	pest or weed control at 500 ppm [5]	pest or weed control at 500 ppm [6]	pest or weed control at 500 ppm [7]	pest or weed control at 500 ppm [1, 10]	pest or weed control at 100 ppm [1, 11]	pest or weed control at 500 ppm [1, 12]
OC(Cc1ccc(Cl)cc1F)(Cn1cnc(Br)c1)C1(Cl)CC1 (racemic) [drawing 79, reference compound]	0%	19%									
N#Cc1cn(CC(O)(Cc2ccc(Cl)cc2F)C2(Cl)CC2)cn1 (racemic) [drawing 81, reference compound]	0%	0%									
OC(Cc1ccc(Cl)cc1F)(Cn1cnc(Cl)c1)C1(Cl)CC1 (racemic) [drawing 83, reference compound]	0%	0%									
OC(Cc1cccnc1Cl)(Cn1cncc1Cl)C1(Cl)CC1 (centres unmarked) [Example I-07]			1.57	70 to 79%	90 to 100%	80 to 89%	90 to 100%	90 to 100%			
OC(Cc1ccccc1Cl)(Cn1cncc1I)C1(Cl)CC1 (centres unmarked) [Example I-14]			2.14	80 to 89%	90 to 100%	80 to 89%	90 to 100%	90 to 100%	90 to 100%		
N#CCc1cncn1CC(O)(Cc1ccccc1Cl)C1(Cl)CC1 (centres unmarked) [Example I-21]			1.66		90 to 100%	80 to 89%	70 to 79%	70 to 79%	90 to 100%		
N#Cc1cncn1CC(O)(Cc1cccc(Br)c1)C1(Cl)CC1 (centres unmarked) [Example I-45]				80 to 89%	90 to 100%	90 to 100%	90 to 100%	90 to 100%	80 to 89%		
N#Cc1cncn1CC(O)(Cc1cc(Cl)ncc1Cl)C1(Cl)CC1 (centres unmarked) [Example I-56]			2.62	70 to 79%	90 to 100%	80 to 89%	90 to 100%	90 to 100%			
Cc1cccc(CC(O)(Cn2cncc2C#N)C2(Cl)CC2)c1 (centres unmarked) [Example I-59]					90 to 100%	80 to 89%	90 to 100%	90 to 100%	90 to 100%		
Cc1ccccc1CC(O)(Cn1cncc1Cl)C1(Cl)CC1 (centres unmarked) [Example I-71]			2.33	90 to 100%	90 to 100%	90 to 100%	90 to 100%	90 to 100%	90 to 100%		
Cc1cccc(CC(O)(Cn2cncc2Cl)C2(Cl)CC2)c1 (centres unmarked) [Example I-73]				80 to 89%	90 to 100%	80 to 89%		80 to 89%	90 to 100%		
Cc1ccc(CC(O)(Cn2cncc2Cl)C2(Cl)CC2)cc1 (centres unmarked) [Example I-76]				90 to 100%	90 to 100%	90 to 100%		90 to 100%	90 to 100%		
OC(Cc1ccc(Cl)cc1)(Cn1cncc1Cl)C1(Cl)CC1 (centres unmarked) [Example I-77]				80 to 89%	90 to 100%	80 to 89%	90 to 100%	90 to 100%	90 to 100%		
CC1(C(O)(Cc2ccccc2Cl)Cn2cncc2C#N)CC1 (centres unmarked) [Example I-79]			2.87	90 to 100%	90 to 100%	90 to 100%	90 to 100%	90 to 100%	90 to 100%		
N#Cc1cncn1CC(O)(Cc1cccc(Cl)c1Cl)C1CCC1 (centres unmarked) [Example I-85]			3.31	80 to 89%	90 to 100%	90 to 100%	90 to 100%	90 to 100%			
Cc1ccc(CC(O)(Cn2cncc2Cl)C2(Cl)CC2)c(F)c1 (centres unmarked) [Example I-108]			2.34	90 to 100%	90 to 100%	90 to 100%		90 to 100%	90 to 100%		
COC(Cc1ccc(Cl)cc1F)(Cn1cncc1C#N)C1CC1 (centres unmarked) [Example I-121]			3.31	70 to 79%	90 to 100%	80 to 89%	90 to 100%	90 to 100%			
CC(C)C(O)(Cc1ccc(F)cc1F)Cn1cncc1C#N (centres unmarked) [Example I-128]			2.52		90 to 100%	90 to 100%	90 to 100%	90 to 100%	90 to 100%		
N#Cc1cncn1CC(O)(Cc1ccccc1F)C1CCC1 (centres unmarked) [Example I-137]			2.46		90 to 100%	80 to 89%	90 to 100%	90 to 100%	70 to 79%		
CC(C)C(O)(Cc1cccc(F)c1F)Cn1cncc1C#N (centres unmarked) [Example I-149]			2.47		90 to 100%	90 to 100%	90 to 100%	80 to 89%	70 to 79%		
N#Cc1cncn1CC(O)(Cc1cccc(F)c1F)CC1CC1 (centres unmarked) [Example I-151]			2.66	70 to 79%	90 to 100%	80 to 89%	90 to 100%	90 to 100%			
N#Cc1cncn1CC(O)(Cc1ccccc1I)C1(Cl)CC1 (centres unmarked) [Example I-166]			3.13	80 to 89%	90 to 100%	90 to 100%	90 to 100%	70 to 79%			
OC(Cc1ccccc1I)(Cn1cncc1Cl)C1(Cl)CC1 (centres unmarked) [Example I-167]				80 to 89%	90 to 100%	80 to 89%	90 to 100%		90 to 100%		
OC(Cc1ccccc1Cl)(Cn1cnc(Br)c1)C1(Cl)CC1 (centres unmarked) [drawing 70, reference compound]										5%	0%
N#Cc1cn(CC(O)(Cc2ccccc2Cl)C2(Cl)CC2)cn1 (centres unmarked) [drawing 72, reference compound]										0%	0%
C#Cc1cn(CC(O)(Cc2ccccc2F)C2(Cl)CC2)cn1 (centres unmarked) [drawing 74, reference compound]										0%	0%
OC(Cc1ccccc1F)(Cn1cnc(Cl)c1)C1(Cl)CC1 (centres unmarked) [drawing 76, reference compound]										0%	0%
OC(Cc1ccccc1F)(Cn1ccnc1Cl)C1(Cl)CC1 (centres unmarked) [drawing 77, reference compound]										0%	0%
N#Cc1cn(CC(O)(Cc2ccccc2F)C2(Cl)CC2)cn1 (centres unmarked) [drawing 85, reference compound]										0%	0%
